From patent EP2640377B1, “FGFR1 EXTRACELLULAR DOMAIN COMBINATION THERAPIES” (Five Prime Therapeutics, Inc., priority 2010, dated 2012) come the findings set out here.

Where two headings read alike, the source gives them in different places.

Data set [1] has as its system Human non-small cell lung cancer (NSCLC) cell line H1703. The experiment in a line: H1703 non-small cell lung cancer (NSCLC) xenograft model: tumor volume and body weight. Format: in vivo, SCID mice. Conditions: day 38. The method, then:
Human non-small cell lung cancer (NSCLC) cell line H1703 was used as the tumor model and was purchased from ATCC (Manassas, VA; Cat. No. CRL-5889).
Docetaxel was purchased from Toronto Research Chemicals (North York, Ontario, Canada; cat. No. D494420) and formulated in H2O containing 5% Tween 80 and 5% glucose. Docetaxel was administered i.p. at 25 mg/kg (equivalent to about 75 mg/m^2 in a human) once every three weeks for two doses. In combination groups, FGFR1-ECD.339-Fc and docetaxel were either given concurrently or sequentially with FGFR1-ECD.339-Fc given one day before docetaxel or vice versa. Human albumin was purchased from Grifols USA (Los Angeles, CA; Cat. No. NDC 61953-0002-1), formulated in PBS at 3 mg/mL and was used as negative control at 300 µg/100 µL/mouse (15 mg/kg). Table 2: Dosing Schedule
The tumor volume was measured by external caliper to determine the greatest longitudinal diameter (length) and the greatest transverse diameter (width). The tumor volume was then calculated using the following formula: Tumorvolume(mm^3) = (length × width^2)/2 [formula]
Table 3. Tumor volume analysis on day 38
Table 4. Analysis of fractional tumor volumea on day 38

The subject of the next data set is A549 cells. The experiment in a line: A549 non-small cell lung cancer (NSCLC) xenograft model: tumor volume and body weight. Conditions: for Fractional tumor volume (FTV), agent alone: day 32.
The subject of data set [2] is Squamous cell lung cancer cell line NCI-H520. Conditions: for Fractional tumor volume (FTV), agent alone / Tumor growth inhibition (%) / Mean Tumor volume mm^3(±SD): day 49; for Tumor growth inhibition (%): alone or with FGFR1-ECD.339-Fc 15 mg/kg; for Mean Tumor volume mm^3(±SD): alone or with FGFR1-ECD.339-Fc 15 mg/kg i.p. 2x/wk.
Description: Six to eight week old female SCID mice were purchased from Charles River Laboratories (Wilmington, MA) and were acclimated for 1 week before the start of the study. […] The cells were cultured for three to four passages in RPMI+10% FBS + 1% L-glutamine at 37°C in a humidified atmosphere with 5% CO2. When the cultured cells reached 85-90% confluence, cells were harvested and resuspended in cold Ca^2+ and Mg^2+ free PBS containing 50% Matrigel at 3.5 x10^7 cells/ml. The cells were implanted subcutaneously over the right flank of the mice at 3.5x10^6 cells/100µl/mouse. One day after tumor implantation, mice were randomized according to body weight at 10 mice per group. Dosing for all groups began one day post tumor implantation.
FGFR1-ECD.339-Fc was formulated in PBS at 3 mg/ml and administered intraperitoneally (i.p.) at 15 mg/kg (300 µg/100 µl/mouse) twice a week for six weeks. […] In combination groups, FGFR1-ECD.339-Fc and pemetrexed were administered on the same schedule as when given as single agents, and were administered concurrently on days 1, 4, 8, and 11.
The tumor volume and body weight of the mice were monitored twice a week throughout study.
The mice were euthanized by isoflurane inhalation and cervical dislocation.
The tumor volume of each group of mice on day 49 was analyzed by one-way ANOVA followed by Tukey's test.
Setting [3] is: FGFR1-ECD.339-Fc 15 mg/kg i.p. twice a week, docetaxel 25 mg/kg i.p. once every three weeks for two doses.
The mark [4] stands for this setting: pemetrexed 62.5 mg/kg i.p. QD x 5 x 2 cycles.
Where [5] appears, read: pemetrexed 125 mg/kg i.p. QD x 5 x 2 cycles.
Where [6] appears, read: pemetrexed 250 mg/kg i.p. (only first five doses given).

On to `CC(=O)O[C@@]12CO[C@@H]1C[C@H](O)[C@@]1(C)C(=O)[C@H](O)C3=C(C)[C@@H](OC(=O)[C@H](O)[C@@H](NC(=O)OC(C)(C)C)c4ccccc4)C[C@@](O)([C@@H](OC(=O)c4ccccc4)[C@H]21)C3(C)C` [Docetaxel, 1,7β,10β-trihydroxy-9-oxo-5β,20-epoxytax-11-ene-2α,4,13α-triyl 4-acetate 2-benzoate 13-{(2R,3S)-3-[(tert-butoxycarbonyl)amino]-2-hydroxy-3-phenylpropanoate}], for which, in data set [1] (setting [3]), the “Mean Tumor volume mm^3(±SD)” value is 209 (±303) mm^3. Moreover, the “Tumor growth inhibition (%)” value in data set [1] (setting [3]) is listed as 74%. The “Fractional tumor volume (FTV), agent alone” value is given as 0.25 in data set [1] (FGFR1-ECD.339-Fc 15 mg/kg, docetaxel 25 mg/kg, FTV = mean TV treated / mean TV control); 0.79 with A549 cells (docetaxel 3 mg/kg i.p. twice per week alone); 0.58 with A549 cells (docetaxel 10 mg/kg i.p. twice per week alone).

As for `Nc1nc2[nH]cc(CCc3ccc(C(=O)N[C@@H](CCC(=O)O)C(=O)O)cc3)c2c(=O)[nH]1` [Pemetrexed, (S)-2-[4-[2-(4-amino-2-oxo-3,5,7-triazabicyclo[4.3.0]nona-3,8,10-trien-9-yl)ethyl]benzoyl] aminopentanedioic acid], the “Fractional tumor volume (FTV), agent alone” value is recorded as 0.59 in data set [2] (pemetrexed 62.5 mg/kg alone), 0.75 in data set [2] (pemetrexed 125 mg/kg alone) and 1.00 in data set [2] (pemetrexed 250 mg/kg alone). Also, the figures for the “Tumor growth inhibition (%)” value in data set [2] (setting [4]), in data set [2] (setting [5]) and in data set [2] (setting [6]) were 40%, 24% and 1%, respectively. For the same molecule, the figures for the “Mean Tumor volume mm^3(±SD)” value in data set [2] (setting [4]), in data set [2] (setting [5]) and in data set [2] (setting [6]) were 544.7 (±341.5) mm^3, 689.5 (±328.7) mm^3 and 926.6 (±339.9) mm^3, respectively. In addition, the “tumor inhibition over the course of the study” value in data set [2] (highest dose of pemetrexed (250 mg/kg), alone or with FGFR1-ECD.339-Fc) was “did not appear to inhibit tumor growth”.

For `CC[C@]1(O)C[C@H]2CN(CCc3c([nH]c4ccccc34)[C@@](C(=O)OC)(c3cc4c(cc3OC)N(C=O)[C@H]3[C@@](O)(C(=O)OC)[C@H](OC(C)=O)[C@]5(CC)C=CCN6CC[C@]43[C@@H]65)C2)C1` [Vincristine, methyl (1R,9R,10S,11R,12R,19R)-11-(acetyloxy)-12-ethyl-4-[(13S,15S,17S)-17-ethyl-17-hydroxy-13-(methoxycarbonyl)-1,11-diazatetracyclo[13.3.1.0^4,12.0^5,10]nonadeca-4(12),5,7,9-tetraen-13-yl]-8-formyl-10-hydroxy-5-methoxy-8,16-diazapentacyclo[10.6.1.0^1,9.0^2,7.0^16,19]nonadeca-2,4,6,13-tetraene-10-carboxylate], the weight loss entry in the data set on A549 cells (higher dose of vincristine (1.5 mg/kg), Figure 9C) is “lost weight”; in the data set with A549 cells (lower dose of vincristine (1 mg/kg), data not shown), “did not lose weight”.
